Assay results taken from patent US8637558B2 (Industry-Academic Cooperation Foundation, Chosun University, priority 2008, dated 2014).
pIC50: −log10 of the molar value.

Biological target: 15-PGDH (Homo sapiens (Human), UniProt P15428)
Assay: Assay for the activities of 15-PGDH inhibitors (formation of NADH at 340 nm)
Format: biochemical
Conditions: purified 15-PGDH enzyme, 21 μM PGE2, 0.25 mM NAD+, pH 7.5; concentration inhibiting 50% of 15-PGDH activity
Protocol: <1-1> Expression and Purification of 15-PGDH
A 15-PGDH cDNA plasmid containing BamHI and EcoRI sites of the pGES-2T expression vector was used to transform Escherichia coli BL-21 lysS in accordance with the ordinarily used in the art. The transformed cells were grown in 500 mL LB medium containing 50 μg/mL ampicillin at 37° C. while being stirred at 220 rpm until the OD600 reached 0.6. Isopropyl β-D-thiogalactoside (1 mM) was added and the cells were allowed to grow for 12 hours at 25° C. Then, the pellets were harvested by centrifugation at 4000×g for 30 minutes at 4° C. The cell pallets were resuspended in 20 mL cell lysis buffer (1×PBS buffer (pH 7.4) containing 1 mM EDTA and 0.1 mM DTT) and sonicated (14×10 s at 4° C.). The disrupted cells were centrifuged at 4000×g for 20 minutes at 4° C. The supernatant was loaded slowly on a glutathione-sepharose 4B column, which was equilibrated at 4° C. with a cell lysis buffer (1×PBS buffer (pH 7.4) containing 1 mM EDTA and 0.1 mM DTT). The column was washed with the lysis buffer until OD280 reached below 0.005. Then, 15-PGDH was eluted from the glutathione-sepharose 4B column at room temperature for 5 minutes by using the elution buffer (50 mM Tris-HCl (pH 8.0) containing 10 mM reduced glutathione, 1 mM EDTA and 0.1 mM DTT). The concentration and the purity of the purified enzyme were determined by SDS-PAGE.
<1-2> Assay for the Activities of 15-PGDH Inhibitors
The absorbance of the reaction mixture was recorded at 340 nm so that the activities of the derivatives according to the present invention as 15-PGDH inhibitors were determined from a standard curve prepared from the absorbance of various concentrations of NADH at 340 nm.

15-PGDH, sequence (P15428 whole entry): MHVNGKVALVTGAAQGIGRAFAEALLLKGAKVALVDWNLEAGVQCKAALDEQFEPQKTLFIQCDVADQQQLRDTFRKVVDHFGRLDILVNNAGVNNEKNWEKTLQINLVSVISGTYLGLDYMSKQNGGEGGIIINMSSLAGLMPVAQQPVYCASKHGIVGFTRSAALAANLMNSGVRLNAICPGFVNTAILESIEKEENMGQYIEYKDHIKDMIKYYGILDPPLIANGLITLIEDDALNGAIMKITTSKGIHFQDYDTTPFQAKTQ

| pIC50 | Structure (SMILES) |
| --- | --- |
| 6.81 | O=C1NC(=O)/C(=C/c2cccc(OCCC3CCCC3)c2Cl)S1 [Derivative 107, 5-[2-chloro-3-(2-cyclopentylethoxy)benzylidene]-1,3-thiazolidine-2,4-dione] |
| 7.00 | O=C1NC(=O)/C(=C/c2ccc(OCCC3CCCC3)c(Cl)c2)S1 [Derivative 108, 5-[3-chloro-4-(2-cyclopentylethoxy)benzylidene]-1,3-thiazolidine-2,4-dione] |
| 4.93 | O=C1NC(=O)/C(=C/c2cccc(OCc3ccc([N+](=O)[O-])cc3)c2Cl)S1 [Derivative 109, 5-(2-chloro-3-(4-nitrobenzyloxy)benzylidene)thiazolidine-2,4-dione] |
| 6.63 | O=C1NC(=O)/C(=C/c2cccc(OCCOC3CCCCC3)c2Cl)S1 [Derivative 110, 5-{2-chloro-3-[2-(cyclohexyloxy)ethoxy]benzylidene}-1,3-thiazolidine-2,4-dione] |
| 5.03 | O=C1NC(=O)/C(=C/c2ccc(OCC3CCC(C(=O)O)CC3)cc2)S1 (centres unmarked) [Derivative 111, 4-({4-[(Z)-(2,4-dioxo-1,3-thiazolidin-5-ylidene)methyl]phenoxy}methyl)cyclohexane carboxylic acid] |
| 6.01 | O=C1NC(=O)C(Cc2ccc(OCCC3CCCCC3)cc2)S1 (centres unmarked) [Derivative 113, 5-(4-(2-cyclohexylethoxy)benzyl)thiazolidine-2,4-dione] |
| 5.39 | O=C1NC(=O)C(Cc2ccc(OCC3CCCCC3)cc2)S1 (centres unmarked) [Derivative 114, 5-(4-(cyclohexylmethoxy)benzyl)thiazolidine-2,4-dione] |
| 6.07 | O=C1NC(=O)C(Cc2ccc(OCC3CCCC3)cc2)S1 (centres unmarked) [Derivative 115, 5-(4-(cyclopentylmethoxy)benzyl)thiazolidine-2,4-dione] |
| 5.28 | O=C1NC(=O)C(Cc2ccc(OCc3ccccc3)cc2)S1 (centres unmarked) [Derivative 116, 5-(4-(benzyloxy)benzyl)thiazolidine-2,4-dione] |
| 5.66 | O=C1NC(=O)C(Cc2ccc(OCCC3CCCC3)cc2)S1 (centres unmarked) [Derivative 118, 5-(4-(2-cyclopentylethoxy)benzyl)thiazolidine-2,4-dione] |
| 5.28 | O=C1NC(=O)C(Cc2ccc(OCCN3CCS(=O)(=O)CC3)cc2)S1 (centres unmarked) [Derivative 119, 5-(4-(2-thiomorpholine-1,1-dioxideethoxy)benzyl)-2,4-thiazolidinedione] |
| 6.76 | O=C1NC(=O)C(Cc2ccc(OCCC3CCCCC3)c(Cl)c2)S1 (centres unmarked) [Derivative 120, 5-(3-chloro-4-(2-cyclohexylethoxy)benzyl)thiazolidine-2,4-dione] |
| 6.40 | Cc1cc(CC2SC(=O)NC2=O)ccc1OCCC1CCCCC1 (centres unmarked) [Derivative 121, 5-(4-(2-cyclohexylethoxy)-3-methylbenzyl)thiazolidine-2,4-dione] |
| 6.85 | O=C1NC(=O)C(Cc2ccc(OCCCC3CCCCC3)c(Cl)c2)S1 (centres unmarked) [Derivative 122, 5-(3-chloro-4-(cyclohexylpropoxy)benzyl)thiazolidine-2,4-dione] |
| 6.69 | O=C1NC(=O)C(Cc2ccc(OCC3CCCC3)cc2)S1 (centres unmarked) [Derivative 123, 5-(4-(cyclopentylmethoxy)benzyl)thiazolidine-2,4-dione] |
| 5.90 | O=C1NC(=O)C(Cc2ccc(OCc3ccccc3)cc2)S1 (centres unmarked) [Derivative 124, 5-(4-(benzyloxy)benzyl)thiazolidine-2,4-dione] |
| 5.86 | O=C1NC(=O)C(Cc2ccc(OCCN3CCS(=O)(=O)CC3)cc2)S1 (centres unmarked) [Derivative 126, 5-(4-(2-thiomorpholine-1,1-Dioxideethoxy)benzyl)-2,4-thiazolidinedione] |
| 6.80 | O=C1NC(=O)C(Cc2ccc(OCCC3CCCCC3)cc2Cl)S1 (centres unmarked) [Derivative 127, 5-(2-chloro-4-(2-cyclohexylethoxy)benzyl)thiazolidine-2,4-dione] |
| 5.97 | O=C1NC(=O)C(Cc2ccc(OCc3ccc(-c4ccccc4)cc3)cc2)S1 (centres unmarked) [Derivative 129, 5-(4-(biphenyl-4-ylmethoxy)benzyl)thiazolidine-2,4-dione] |
| 6.11 | O=C1NC(=O)C(Cc2ccc(OCCC3CCCC3)cc2)S1 (centres unmarked) [Derivative 130, 5-(4-(2-cyclopentylethoxy)benzyl)thiazolidine-2,4-dione] |
